Test results taken from ChEMBL document CHEMBL1139783, “Cyclonatsudamine A, a new vasodilator cyclic peptide from Citrus natsudaidai” (2007).
The source made the active and inactive calls. No cut-off for these calls is given here. Where a SMILES comes first, the peptide text is derived from it.

What was measured:
Aorta [1] = test: Vasorelaxation effect on norepinephrine-induced contractions in rat aorta with endothelium at 0.1 uM; assay type: functional; set-up: scale not given: the % may be the effect or the level left
Aorta [2] = test: Vasorelaxation effect on norepinephrine-induced contractions in rat endothelium-denuded aorta; assay type: functional, tissue-based
Aorta [3] = test: Vasorelaxation effect on norepinephrine-induced contractions in rat aorta with endothelium at 100 uM; assay type: functional; set-up: scale not given: the % may be the effect or the level left
Aorta [4] = test: Inhibition of drug-induced vasorelaxation in rat aorta precontracted with norepinephrine in presence of nitric oxide synthase inhibitor L-NAME; assay type: functional, tissue-based

**Q.** What does the source list for `CC(C)C[C@@H]1NC(=O)[C@H](Cc2ccc(O)cc2)NC(=O)CNC(=O)[C@H](CO)NC(=O)[C@@H]2CCCN2C(=O)[C@@H]2CCCN2C(=O)[C@H](CC(C)C)NC1=O` [CYCONATSUDAMINE A] (cyclo(GYLLPPS))?
**A.** Activity (Aorta [1]): 40%; Activity (Aorta [2]): inactive; Activity (Aorta [3]): 80%; Activity (Aorta [4]): Active
